6 molecules from patent US11834463B2, “High affinity macrocyclic FKB51-inhibitors for treatment of psychiatric disorders” (priority 2020, dated 2023) can be followed below.

Where “and” joins values, the source holds several entries; their conditions need not be identical. Equal entries are not always repeated. Where two headings read alike, the source gives them in different places.

Test in series [1]: not given
This is another data set of the same source.

A further series addresses T1, FKBP51FK1 (Homo sapiens, UniProt Q13451).
T1 sequence (Q13451 42-130 limits assumed): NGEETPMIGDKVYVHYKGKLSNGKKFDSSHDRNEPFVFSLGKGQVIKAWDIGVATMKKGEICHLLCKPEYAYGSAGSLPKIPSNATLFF
The experiment in a line: biochemical. The procedure: All macrocyclic compounds were tested in a competitive fluorescence polarization assay for binding towards FKBP51 as well as the homologs FKBP12, FKBP12.6 and FKBP52 (Table 1).
Example 8: […] of the Macrocyclic FKBP51 Ligands by SPPS

Consider `COc1ccc(CC[C@@H]2OC(=O)[C@H]3CCCCN3C(=O)[C@@H](C3CCCCC3)c3cc(OC)c(OC)c(c3)OCCCOCC=CCOc3cccc2c3)cc1OC`, for which, under “from C=CCOCCCOc1cc([C@@H](C(=O)N2CCCC[C@@H]2C(=O)O[C@@H](CCc2ccc(OC)c(OC)c2)c2cccc(OCC=C)c2)C2CCCCC2)cc(OC)c1OC, rcm bond, 23-membered ring, Grubbs II (0.1 equiv)/1,4-benzoquinone, DCM, 1.0 mM”, the ring closure, yield after HPLC is 58% and 33%.
With `COc1ccc(CC[C@@H]2OC(=O)[C@H]3CCCCN3C(=O)[C@@H](C3CCCCC3)c3cc(OC)c(OC)c(c3)OCCCOc3cccc2c3)cc1OC`, the ring closure, yield after HPLC (from COc1ccc(CC[C@H](OC(=O)[C@H]2CCCCN2C(=O)[C@H](c2cc(OC)c(OC)c(OCCCI)c2)C2CCCCC2)c2cccc(O)c2)cc1OC, ether bond, 18-membered ring, K2CO3 (2 equiv), MeCN, 0.3 mM) was determined as 26%.
With `COc1ccc(CC[C@@H]2OC(=O)[C@H]3CCCCN3C(=O)[C@@H](C3CCCCC3)c3cc(OC)c(OC)c(c3)OCCOc3cccc2c3)cc1OC`, the ring closure, yield after HPLC (from COc1ccc(CC[C@H](OC(=O)[C@H]2CCCCN2C(=O)[C@H](c2cc(OC)c(OC)c(OCCI)c2)C2CCCCC2)c2cccc(O)c2)cc1OC, ether bond, 17-membered ring, K2CO3 (2 equiv), MeCN, 1.0 mM) amounted to 42%.
With `COc1ccc(CC[C@@H]2OC(=O)[C@H]3CCCCN3C(=O)[C@@H](C3CCCCC3)c3cc(OC)c(c(OC)c3)OCCCOc3cccc2c3)cc1OC`, the ring closure, isolated yield in series [1] (from COc1ccc(CC[C@H](OC(=O)[C@H]2CCCCN2C(=O)[C@H](c2cc(OC)c(OCCCI)c(OC)c2)C2CCCCC2)c2cccc(O)c2)cc1OC, ether bond, 19-membered ring, K2CO3 (2 equiv), MeCN, 0.5 mM) worked out at 81%.
As for `COc1ccc(CC[C@H]2OC(=O)[C@@H]3CCCCN3C(=O)[C@@H](C3CCCCC3)C/C=C/COCCOc3cccc2c3)cc1OC`, the ring closure, isolated yield in series [1] (from C=CCOCCOc1cccc([C@H](CCc2ccc(OC)c(OC)c2)OC(=O)[C@H]2CCCCN2C(=O)[C@H](CC=C)C2CCCCC2)c1, rcm bond, 18-membered ring, Grubbs II (0.1 eq), DCM, 0.5 mM, 30.0 °C, 2.5 h) turned out to be 92%.
As to `COc1ccc(CC[C@H]2OC(=O)[C@@H]3CCCCN3C(=O)[C@@H](C3CCCCC3)NC(=O)C(C)(C)NC(=O)COc3cc(O)cc2c3)cc1OC` [Compound 103, (2R,5S,12R)-12-cyclohexyl-2-[2-(3,4-dimethoxyphenyl)ethyl]-22-hydroxy-15,15-dimethyl-3,19-dioxa-10,13,16-triazatricyclo[18.3.1.0^5,10]tetracosa-1(24),20,22-triene-4,11,14,17-tetrone], the “affinity (in words)” value on FKBP51FK1 was “bound similarly to the glycine derivative 83”. At FKBP51FK1 (FKBP51FK1 Ki [μM], Table 2, [a] standard error from three, [c] error from two independent measurements), this molecule registered a Ki of 0.37 µM. The ring closure, isolated yield in series [1] (from H-Aib-dChg-Pip-[O-(R)-CH(CH2CH2-3,4-dimethoxyphenyl)-C6H3(O-resin)-OCH2CO]-OH?, amide bond, 17-membered ring, resin, with chain assembly) was determined as 20%.
